From publication PMC6155811, “Effect of Phenolic Compounds from Elderflowers on Glucose- and Fatty Acid Uptake in Human Myotubes and HepG2-Cells” (Molecules : A Journal of Synthetic Chemistry and Natural …, 2017)
Where two headings read alike, the source gives them in different places.

Columns and labels:
[1] = DPPH radical scavenging; settings: phenolic compounds and metabolites; IC50 ± SD
Protocol: Scavenging activity towards the DPPH radical was carried out as previously described. Test substances were dissolved in DMSO or water. Values were corrected for absorbance of the test substances.

[2] = molecular target: T1, Porcine pancreatic α-amylase (Sus scrofa, UniProt P00690); experiment: α-Amylase inhibitory activity; format: biochemical; settings: phenolic compounds and metabolites; IC50 ± SD
T1 construct: purchased Sigma-Aldrich Chemie GmbH
T1 sequence (P00690 16-511): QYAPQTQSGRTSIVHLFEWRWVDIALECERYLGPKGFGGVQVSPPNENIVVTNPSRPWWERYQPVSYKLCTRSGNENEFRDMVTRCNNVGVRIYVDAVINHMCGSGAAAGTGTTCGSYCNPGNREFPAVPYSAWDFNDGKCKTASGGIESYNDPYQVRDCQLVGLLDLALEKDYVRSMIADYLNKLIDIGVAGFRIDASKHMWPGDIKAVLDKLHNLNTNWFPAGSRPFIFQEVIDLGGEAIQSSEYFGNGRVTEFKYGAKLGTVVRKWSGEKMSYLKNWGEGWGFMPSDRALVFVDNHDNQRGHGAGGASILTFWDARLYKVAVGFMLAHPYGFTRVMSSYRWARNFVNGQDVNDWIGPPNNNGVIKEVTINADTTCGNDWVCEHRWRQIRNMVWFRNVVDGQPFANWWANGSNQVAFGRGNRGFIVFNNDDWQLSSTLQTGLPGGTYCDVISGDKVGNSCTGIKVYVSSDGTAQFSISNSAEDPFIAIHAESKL
Protocol: The α-amylase assay was performed as described by Gella, et al.. Porcine pancreatic α-amylase (EC 3.2.1.1) was purchased from Sigma-Aldrich Chemie GmbH.

[3] = molecular target: T2, xanthine oxidase from bovine milk (Bos taurus, UniProt P80457); experiment: Inhibition of xanthine oxidase; format: biochemical; settings: for IC50: phenolic compounds and metabolites, IC50 ± SD, read-out: XO IC50; for XO inhibition (in words): up to highest concentration tested (167 µM)
T2 construct: xanthine oxidase from bovine milk; purchased Sigma-Aldrich (St. Louis, MO, USA); host or cells: bovine milk
T2 sequence (P80457 whole entry): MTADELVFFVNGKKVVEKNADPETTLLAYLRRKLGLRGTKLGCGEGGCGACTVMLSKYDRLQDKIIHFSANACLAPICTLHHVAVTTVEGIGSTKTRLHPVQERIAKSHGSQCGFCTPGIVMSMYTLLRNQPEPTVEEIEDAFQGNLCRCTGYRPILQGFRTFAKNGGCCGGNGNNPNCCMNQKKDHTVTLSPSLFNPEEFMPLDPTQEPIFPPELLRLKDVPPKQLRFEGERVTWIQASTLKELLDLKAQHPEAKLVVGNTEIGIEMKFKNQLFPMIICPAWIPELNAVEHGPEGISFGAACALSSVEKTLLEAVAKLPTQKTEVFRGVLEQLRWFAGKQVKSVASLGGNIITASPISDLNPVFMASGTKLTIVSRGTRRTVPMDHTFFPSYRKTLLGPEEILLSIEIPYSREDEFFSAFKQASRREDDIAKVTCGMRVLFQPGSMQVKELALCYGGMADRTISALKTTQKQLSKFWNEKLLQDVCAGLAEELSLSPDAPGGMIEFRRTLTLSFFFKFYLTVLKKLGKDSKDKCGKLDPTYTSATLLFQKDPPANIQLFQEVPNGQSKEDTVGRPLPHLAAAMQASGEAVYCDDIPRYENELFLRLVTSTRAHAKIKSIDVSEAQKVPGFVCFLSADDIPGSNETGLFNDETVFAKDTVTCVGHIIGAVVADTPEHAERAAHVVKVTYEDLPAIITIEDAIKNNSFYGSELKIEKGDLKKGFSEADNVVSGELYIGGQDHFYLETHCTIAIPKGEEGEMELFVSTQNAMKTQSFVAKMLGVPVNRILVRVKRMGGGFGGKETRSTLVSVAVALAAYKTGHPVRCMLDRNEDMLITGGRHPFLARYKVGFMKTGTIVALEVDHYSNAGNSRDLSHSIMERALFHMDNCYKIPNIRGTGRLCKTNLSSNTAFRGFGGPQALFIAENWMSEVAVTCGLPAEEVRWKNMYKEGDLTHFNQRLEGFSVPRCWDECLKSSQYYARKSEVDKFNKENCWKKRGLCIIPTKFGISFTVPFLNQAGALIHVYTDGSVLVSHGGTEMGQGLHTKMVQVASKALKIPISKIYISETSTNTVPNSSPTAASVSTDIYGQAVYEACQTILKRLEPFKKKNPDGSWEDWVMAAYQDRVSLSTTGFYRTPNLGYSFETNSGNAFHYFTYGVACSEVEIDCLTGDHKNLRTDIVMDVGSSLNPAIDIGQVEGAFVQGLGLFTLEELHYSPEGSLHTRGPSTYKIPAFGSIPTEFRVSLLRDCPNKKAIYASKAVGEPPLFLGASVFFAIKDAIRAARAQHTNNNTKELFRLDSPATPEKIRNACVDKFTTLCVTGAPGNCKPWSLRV
Protocol: The XO inhibitory activity with hypoxanthine as the substrate was carried out previously described. Test substances were dissolved in DMSO or water.

[4] = molecular target: T3, 15-lipoxygenase (15-LO) from soybeans (Glycine max, UniProt P08170); experiment: Inhibition of 15-lipoxygenase; format: biochemical, soybean; settings: IC50 ± SD
T3 construct: 15-lipoxygenase (15-LO) from soybeans; purchased Sigma-Aldrich (St. Louis, MO, USA); host or cells: soybeans
T3 sequence (P08170 1-839): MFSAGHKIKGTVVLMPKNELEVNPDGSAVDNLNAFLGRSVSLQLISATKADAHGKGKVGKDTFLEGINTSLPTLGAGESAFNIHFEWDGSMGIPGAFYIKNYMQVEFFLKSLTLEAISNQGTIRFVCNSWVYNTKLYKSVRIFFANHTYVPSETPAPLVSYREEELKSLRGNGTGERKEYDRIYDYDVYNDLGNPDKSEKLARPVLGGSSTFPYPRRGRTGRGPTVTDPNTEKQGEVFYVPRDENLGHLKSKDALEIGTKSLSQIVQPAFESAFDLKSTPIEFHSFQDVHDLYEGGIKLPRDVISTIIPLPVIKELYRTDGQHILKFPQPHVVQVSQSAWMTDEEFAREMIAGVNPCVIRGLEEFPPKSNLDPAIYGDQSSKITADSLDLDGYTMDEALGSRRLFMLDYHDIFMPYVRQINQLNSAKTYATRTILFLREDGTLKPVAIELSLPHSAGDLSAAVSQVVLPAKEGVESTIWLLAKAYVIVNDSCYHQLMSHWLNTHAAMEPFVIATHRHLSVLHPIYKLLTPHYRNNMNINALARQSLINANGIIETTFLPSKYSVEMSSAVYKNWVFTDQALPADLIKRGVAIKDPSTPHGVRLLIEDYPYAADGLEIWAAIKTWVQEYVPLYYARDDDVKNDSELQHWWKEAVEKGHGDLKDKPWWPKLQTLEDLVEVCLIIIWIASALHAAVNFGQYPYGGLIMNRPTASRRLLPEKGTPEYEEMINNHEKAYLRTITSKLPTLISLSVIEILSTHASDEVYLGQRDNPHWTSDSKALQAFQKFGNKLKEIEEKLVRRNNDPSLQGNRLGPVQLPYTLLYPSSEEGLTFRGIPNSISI
Protocol: Test substances were dissolved in DMSO or water, and the assay was carried out as previously described.

[5] = molecular target: T4, Baker's yeast α-glucosidase (Saccharomyces cerevisiae, UniProt P53341); experiment: biochemical; settings: IC50 ± SD
T4 construct: purchased Sigma-Aldrich Chemie GmbH (Steinheim, Germany)
T4 sequence (P53341 whole entry): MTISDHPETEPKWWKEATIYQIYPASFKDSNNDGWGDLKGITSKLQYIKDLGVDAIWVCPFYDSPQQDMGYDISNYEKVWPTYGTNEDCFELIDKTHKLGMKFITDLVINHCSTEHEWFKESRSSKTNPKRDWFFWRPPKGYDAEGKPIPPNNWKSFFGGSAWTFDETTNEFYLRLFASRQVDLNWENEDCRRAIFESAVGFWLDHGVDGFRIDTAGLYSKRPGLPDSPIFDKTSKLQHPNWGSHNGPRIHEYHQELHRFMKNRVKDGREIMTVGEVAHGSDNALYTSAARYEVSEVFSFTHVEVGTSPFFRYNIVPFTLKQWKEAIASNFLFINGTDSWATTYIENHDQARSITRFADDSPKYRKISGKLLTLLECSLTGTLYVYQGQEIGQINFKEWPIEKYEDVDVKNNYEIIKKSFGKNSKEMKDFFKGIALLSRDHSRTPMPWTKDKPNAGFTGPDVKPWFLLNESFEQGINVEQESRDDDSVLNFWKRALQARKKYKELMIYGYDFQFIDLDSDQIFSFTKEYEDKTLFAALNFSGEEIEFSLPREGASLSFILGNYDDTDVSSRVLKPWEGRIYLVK
Protocol: The α-glucosidase inhibitory activity of the extracts was assessed according to the method described by Ranilla, et al.. Baker’s yeast α-glucosidase (EC 3.2.1.20) was purchased from Sigma-Aldrich Chemie GmbH (Steinheim, Germany).

[6] = test system: human skeletal muscle cells; experiment: Oleic acid uptake in human myotubes ([14C]-oleic acid); format: cell-based; settings: for increase in oleic acid uptake: 10 µM (highest concentration tested), 2 days, vs 0.1% DMSO control; for oleic acid uptake (in words): 10 µM
Protocol: Figure 3 Effects of elderflower extracts, constituents and metabolites on oleic acid uptake in human myotubes. Myotubes were treated with (A) 12.5, 25 and 50 µg/mL of different crude extracts; (B,C) 0.1, 1 and 10 µM of elderflower phenolic compounds and metabolites for 2 days. Thereafter, the cells were exposed to [^14C]-oleic acid (37 kBq, 100 µM) for 4 h as described in Materials and Methods. A synthetic liver X receptor (LXR) agonist T0901317 (10 μM) was used as positive control. The figures show [^14C]-oleic acid uptake given as means ± SEM (n = 3) from separate experiments. * p < 0.05 vs. control (0.1% DMSO).
(§1) Satellite cells were isolated from the Musculus obliquus internus abdominis of four healthy donors, age 34.8 (±19) years, body mass index 22.9 (±2.7) kg/m^2, fasting glucose 4.9 (±0.6) mM, insulin, plasma lipids and blood pressure within normal range and no family history of diabetes. The muscle biopsies were obtained with informed consent and approval by the National Committee for Research Ethics (Oslo, Norway). The cells were cultured on 96-well CellBIND microplates DMEM-Glutamax (5.5 mM glucose), 2% fetal bovine serum, 2% Ultroser G, penicillin (100 units/mL), streptomycin (100 μg/mL) and amphotericin B (1.25 μg/mL) for proliferation. At 70%–80% confluence, the growth medium was replaced by DMEM-Glutamax (5.5 mM glucose) supplemented with 2% fetal bovine serum, penicillin (100 units/mL), streptomycin (100 μg/mL), amphotericin B (1.25 μg/mL) and insulin (25 pM), to induce differentiation. The cells were cultured in humidified 5% CO2 atmosphere at 37 °C, and the medium was changed every 2–3 days. Experiments were performed after 7 days of differentiation. 22-S-hydroxycholesterol (22-SHC) (10 µM) was used as positive control in the glucose uptake assay. The positive control used in the oleic acid assay is the synthetic liver X receptor (LXR) agonist T0901317 (10 µm).
(§2) Cells were exposed to test samples solved in 0.1% DMSO that were added directly to the medium for 2 days for myotubes and 24 h for HepG2 cells. Thereafter, cells were exposed to [^14C(U)]-glucose (1 μCi/mL, 100 μM) or [^14C]-oleic acid (37 kBq, 100 µM) for 4 h. A 96-well UniFilter-96 GF7B microplate (Perkin Elmer, Waltham, MA, USA) was mounted on top of the CellBIND plate (Corning Life-Sciences (Schiphol-Rijk, The Netherlands) and CO2 production was measured. After incubation the cells were washed twice with ice-cold phosphate buffered saline (PBS), lysed in 0.1 M NaOH, and radioactivity measured by liquid scintillation counting. The protein content of each sample was determined and glucose uptake was calculated using protein levels for standardization.

[7] = test system: human skeletal muscle cells; experiment: Glucose uptake in human myotubes ([14C(U)]-glucose); format: cell-based; settings: for increase in glucose uptake: 10 µM, 2 days, vs 0.1% DMSO control, mean ± SEM
Protocol: Figure 2 Effects of elderflower extracts, constituents and metabolites on glucose uptake in human myotubes. Myotubes were treated with (A) 12.5, 25 and 50 µg/mL of different crude extracts; (B,C) 0.1, 1 and 10 µM of elderflower phenolic compounds and metabolites for 2 days. Thereafter, the cells were exposed to [^14C(U)]-glucose (1 μCi/mL, 100 μM) for 4 h as described in the Materials and Methods section. 22-S-hydroxycholesterol (22-SHC) (10 μM) was used as positive control. The figures show [^14C(U)]-glucose uptake given as means ± standard error of the mean (SEM) (n = 3) from separate experiments. * p < 0.05 vs. control (0.1% dimethyl sulfoxide (DMSO)).
as §1, §2

[8] = phenolic compounds and metabolites, read-out: 15-LO IC50
[9] = phenolic compounds and metabolites, read-out: α-Glucosidase IC50
[10] = α-Glucosidase IC50, phenolic compounds and metabolites
[11] = 15-LO IC50, phenolic compounds and metabolites
[12] = 10 µM (highest concentration tested)

Row | SMILES | IC50 [2] | IC50 [3] | IC50 [4, 8] | XO inhibition (in words) [3] | IC50 [5, 9] | IC50 [1] | increase in oleic acid uptake [6] | IC50 [5, 10] | increase in glucose uptake [7] | IC50 [4, 11] | oleic acid uptake (in words) [6] | glucose uptake (in words) [7, 12] | glucose uptake (in words) ([7]; 0.1 and 1 µM, compared to DMSO control)
1 | O=c1c(OC2OC(CO)C(O)C(O)C2O)c(-c2ccc(O)c(O)c2)oc2cc(O)cc(O)c12 (centres unmarked) [Quercetin-3-glucoside] | 3 ± 1.2 µM | 106 ± 5.3 µM | – | – | – | 17.6 ± 3.2 µM | 13.1% ± 3.5% | 4.1 ± 1.9 µM | – | – | – | – | –
2 | COc1cc(-c2oc3cc(O)cc(O)c3c(=O)c2O)ccc1O [Isorhamnetin] | – | – | – | – | – | 63.3 ± 2.3 µM | – | 8.1 ± 3.1 µM | 18.8% ± 4.3% | 103 ± 2.4 µM | – | – | –
3 | O=C(O)/C=C/c1ccc(O)c(O)c1 [Caffeic acid] | – | 107 ± 3.2 µM | – | – | – | 90.3 ± 4.3 µM | – | 18.5 ± 0.9 µM | – | – | – | – | –
4 | CC1OC(Oc2c(-c3ccc(O)c(O)c3)oc3cc(O)cc(O)c3c2=O)C(O)C(O)C1O (centres unmarked) [Quercetin-3-rhamnoside] | 3.5 ± 0.9 µM | 105 ± 4.6 µM | 108 ± 4.6 µM | – | – | 19.1 ± 2.1 µM | 5.0% ± 6.0% | 3.9 ± 1.4 µM | – | – | – | – | –
5 | O=C(O)c1ccccc1 [Benzoic acid] | – | > 167 µM | – | inactive | – | 145 ± 5.8 µM | – | 129 ± 3.8 µM | – | 138 ± 6.5 µM | – | – | inactive
6 | CC1OC(OCC2OC(Oc3c(-c4ccc(O)cc4)oc4cc(O)cc(O)c4c3=O)C(O)C(O)C2O)C(O)C(O)C1O (centres unmarked) [Kaempferol-3-rutinoside] | 19.1 ± 0.5 µM | 63.8 ± 2.1 µM | 109 ± 5.6 µM | – | – | 30.6 ± 3.9 µM | – | 23.9 ± 1.1 µM | 29.7% ± 2.5% | – | – | – | –
7 | O=C(O)Cc1ccc(O)c(O)c1 [3,4-Dihydroxyphenylacetic acid] | 74.9 ± 1.7 µM | > 167 µM | 135 ± 7.3 µM | inactive | 78.5 ± 1.6 µM | 116 ± 1.4 µM | – | – | – | – | small but significant increase | small increase | –
8 | C[C@@H]1O[C@@H](OC[C@H]2O[C@@H](Oc3c(-c4ccc(O)c(O)c4)oc4cc(O)cc(O)c4c3=O)[C@H](O)[C@@H](O)[C@@H]2O)[C@H](O)[C@H](O)[C@H]1O [Rutin, Quercetin-3-rutinoside] | 4.1 ± 0.8 µM | 42.9 ± 2.9 µM | 99.3 ± 1.1 µM | – | – | 22.5 ± 1.6 µM | – | 4.6 ± 2.3 µM | – | – | – | – | –

Now from value to compound, other results behind:

Row | IC50 [2] | IC50 [3] | IC50 [4, 8] | XO inhibition (in words) [3] | IC50 [5, 9] | SMILES | IC50 [1] | increase in oleic acid uptake [6] | IC50 [5, 10] | increase in glucose uptake [7] | IC50 [4, 11] | oleic acid uptake (in words) [6] | glucose uptake (in words) [7, 12] | glucose uptake (in words) ([7]; 0.1 and 1 µM, compared to DMSO control)
9 | 6.2 ± 1.1 µM | 95.1 ± 4.5 µM | 124 ± 3.5 µM | – | – | O=C1C[C@@H](c2ccc(O)cc2)Oc2cc(O)cc(O)c21 [Naringenin] | 23.3 ± 1.4 µM | – | – | – | – | – | – | –
10 | 14.1 ± 0.8 µM | > 167 µM | – | did not inhibit | 18.5 ± 2.2 µM | Oc1cc(O)c2c(c1)O[C@H](c1ccc(O)c(O)c1)[C@@H](O)C2 [Catechin] | 19 ± 1.1 µM | – | – | – | – | – | – | –
11 | 94.8 ± 6.8 µM | > 167 µM | 129 ± 5.2 µM | inactive | 98.9 ± 3.5 µM | Cc1ccc(O)c(O)c1 [4-Methylcatechol] | 40.5 ± 3.6 µM | – | – | – | – | small but significant increase | small increase | –
12 | 26.2 ± 0.7 µM | 125 ± 3.9 µM | 115 ± 6.2 µM | – | 25.2 ± 2.9 µM | COc1cc(-c2oc3cc(O)cc(O)c3c(=O)c2OC2OC(COC3OC(C)C(O)C(O)C3O)C(O)C(O)C2O)ccc1O (centres unmarked) [Isorhamnetin-3-rutinoside] | 85 ± 2.1 µM | – | – | 10.0% ± 3.6% | – | – | – | –
13 | 44.8 ± 5.3 µM | > 167 µM | 134 ± 5.8 µM | inactive | 68.9 ± 3.8 µM | O=C(O)Cc1cccc(O)c1 [3-Hydroxyphenylacetic acid] | 125 ± 4.8 µM | – | – | – | – | small but significant increase | small increase | –
14 | 9.7 ± 2.1 µM | > 167 µM | 116 ± 7.9 µM | did not inhibit | 12.1 ± 2.3 µM | Oc1cc(O)c2c(c1)O[C@H](c1ccc(O)c(O)c1)[C@H](O)C2 [Epicatechin] | 15.6 ± 2.3 µM | – | – | – | – | – | – | –
15 | 15.4 ± 3.2 µM | 26.2 ± 3.1 µM | 115 ± 5.8 µM | – | – | O=C(C=Cc1ccc(O)c(O)c1)OC1CC(O)(C(=O)O)CC(O)C1O (centres unmarked) [Neochlorogenic acid] | – | – | – | – | – | – | – | –
